Here are results for 29 molecules from patent US20060223996A1, “IL-12 modulatory compounds” (Synta Pharmaceuticals Corp., priority 2004, published 2006).

A value given as a limit tells only on which side of the number the result lay.

This experiment deals with IL-12. Put plainly: Human in vitro assay: inhibition of IL-12 production in IFNγ/LPS- or IFNγ/SAC-stimulated human PBMC or THP-1 cells (ELISA). The following applies: read-out: IC50 Range (representative in vitro IC50 data). In kind it is cell-based. An excerpt:
The biological activities of a heterocyclic compound can be evaluated by a number of cell-based assays. One of such assays can be conducted using cells from human peripheral blood mononuclear cells (PBMC) or human monocytic cell line (THP-1). The cells are stimulated with a combination of human interferon-γ (IFNγ) and lipopolysaccharide or a combination of IFNγ and Staphylococcus aureus Cowan I in the presence of a test compound. The level of inhibition of IL-12 production can be measured by determining the amount of p70 by using a sandwich ELISA assay with anti-human IL-12 antibodies. IC50 of the test compound can then be determined. Specifically, PBMC or THP-1 cells are incubated with the test compound. Cell viability was assessed using the bioreduction of MTS [3-(4,5-dimethylthiazol-2-yl)-5-(3-carboxymethoxyphenyl)-2-(4-sulfophenyl)-2H-tetrazolium](Promega, Madison, Wis.).
Human In Vitro Assay. Human PBMC were isolated by centrifugation using Ficoll-Paque (Pharmacia Biotech, Uppsala, Sweden) and prepared in RPMI medium supplemented with 10% fetal calf serum (FCS), 100 U/mL penicillin, and 100 μg/mL streptomycin. PBMC were plated in wells of a 96-well plate at a concentration of 5×10^5 cells/well, and primed by adding IFNγ (30 U/mL) for 22 h and stimulated by adding LPS (1 μg/mL), or by adding IFNγ (100 U/mL) and then stimulated by adding SAC (0.01%). A test pyrimidine compound was dissolved in DMSO, and added to wells of the 96-well plate. The final DMSO concentration was adjusted to 0.25% in all cultures, including the compound-free control. Human THP-1 cells were plated in wells, primed by adding IFNγ (100 U/mL) for 22 h and stimulated by adding SAC (0.025%) in the presence of different concentrations of the pyrimidine compound. Cell-free supernatants were taken 18 h later for measurement of cytokines. Cell viability was assessed using the bioreduction of MTS. Cell survival was estimated by determining the ratio of the absorbance in compound-treated groups versus compound-free control.
The supernatant was assayed for the amount of IL-12p40, IL-12p70, or IL-10 by using a sandwich ELISA with anti-human antibodies, i.e., a Human IL-12 p40 ELISA kit from R&D Systems (Berkeley, Calif.), and a Human IL-12 p70 or IL-10 ELISA kit from Endogen (Cambridge, Mass.). Assays were based on the manufacturer's instructions.
The biological activities of pyrimidine compounds were tested on human PBMC or THP-1 cells.

For `O=C(Nc1cc(OCCN2CCOCC2)nc(N2CCOCC2)n1)Nc1cccc2c(O)cccc12` [Compound 138, 1-(5-Hydroxy-naphthalen-1-yl)-3-[2-morpholin-4-yl-6-(2-morpholin-4-yl-ethoxy)-pyrimidin-4-yl]-urea], the IC50 is not below 1000 nM.

`Cc1[nH]c2ccc(NC(=O)c3cc(O)nc(N4CCOCC4)n3)cc2c1C` [Compound 254, N-(2,3-dimethyl-1H-indol-5-yl)-6-hydroxy-2-morpholinopyrimidine-4-carboxamide]: the half-inhibitory concentration (IC50) was less than 1000 nM.

Turning to `CNCCOc1cc(C(=O)Nc2ccc3c(c2)c(C)c(C)n3C)nc(N2CCOCC2)n1` [Compound 286, 6-(2-Methylamino-ethoxy)-2-morpholin-4-yl-pyrimidine-4-carboxylic acid (1,2,3-trimethyl-1H-indol-5-yl)-amide], the half-maximal inhibitory concentration (IC50) was less than 1000 nM.

As to `Cc1cc(C(=O)Nc2ccc3c(c2)c(C)c(C)n3O)nc(N2CCOCC2)n1` [Compound 319, 6-Methyl-2-morpholin-4-yl-pyrimidine-4-carboxylic acid (1-hydroxy-2,3-dimethyl-1H-indol-5-yl)-amide], the half-maximal inhibitory concentration (IC50) is less than 1000 nM.

Consider `CONc1cc(C(=O)Nc2cccc(N(C)C)c2)nc(N2CCOCC2)n1` [Compound 196, N-(3-(dimethylamino)phenyl)-6-(methoxyamino)-2-morpholinopyrimidine-4-carboxamide], for which the concentration for half-maximal inhibition (IC50) is less than 1000 nM.

On to `O=C(Nc1cccc([N+](=O)[O-])c1)c1cc(OCCN2CCOCC2)nc(N2CCOCC2)n1` [Compound 276, 2-Morpholin-4-yl-6-(2-morpholin-4-yl-ethoxy)-pyrimidine-4-carboxylic acid (3-nitro-phenyl)-amide], for which the IC50 is not below 1000 nM.

As for `COCCN(C)c1cc(C(=O)Nc2cccc(C(F)(F)F)c2)nc(N2CCOCC2)n1` [Compound 209, 6-((2-methoxyethyl)(methyl)amino)-2-morpholino-N-(3-(trifluoromethyl)phenyl)pyrimidine-4-carboxamide], the IC50 is not below 1000 nM.

Consider `CC(C)N(C)c1cccc(NC(=O)c2cc(OCCN3CCOCC3)nc(N3CCOCC3)n2)c1` [Compound 308, 2-Morpholin-4-yl-6-(2-morpholin-4-yl-ethoxy)-pyrimidine-4-carboxylic acid [3-(isopropyl-methyl-amino)-phenyl]-amide], for which the concentration for half-maximal inhibition (IC50) is not below 1000 nM.

Turning to `Cc1cccc(NC(=O)CNc2cc(C(=O)Nc3ccc4[nH]c(C)c(C)c4c3)nc(N3CCOCC3)n2)c1` [Compound 111, 2-Morpholin-4-yl-6-[(m-tolylcarbamoyl-methyl)-amino]-pyrimidine-4-carboxylic acid (2,3-dimethyl-1H-indol-5-yl)-amide], the IC50 is less than 1000 nM.

With `Cc1[nH]c2ccc(NC(=O)c3cc(N(CCO)CCO)nc(N4CCOCC4)n3)cc2c1C` [Compound 91, 6-[Bis-(2-hydroxy-ethyl)-amino]-2-morpholin-4-yl-pyrimidine-4-carboxylic acid (2,3-dimethyl-1H-indol-5-yl)-amide], the IC50 was less than 1000 nM.

For `COCCN(C)c1cc(C(=O)Nc2nc3cc(C)c(C)cc3s2)nc(N2CCOCC2)n1` [Compound 203, N-(5,6-dimethylbenzo[d]thiazol-2-yl)-6-((2-methoxyethyl)(methyl)amino)-2-morpholinopyrimidine-4-carboxamide], the concentration for half-maximal inhibition (IC50) was not below 1000 nM.

In the case of `O=C(c1cc(OCCN2CCOCC2)nc(N2CCOCC2)n1)n1ccc2ccccc21` [Compound 54, Indol-1-yl-[2-morpholin-4-yl-6-(2-morpholin-4-yl-ethoxy)-pyrimidin-4-yl]-methanone], the IC50 is not below 1000 nM.

In the case of `Cc1[nH]c2ccc(NC(=O)Nc3cc(N4CCN(c5ccccn5)CC4)nc(N4CCOCC4)n3)cc2c1C` [Compound 268, 1-(2,3-dimethyl-1H-indol-5-yl)-3-(2-morpholino-6-(4-(pyridin-2-yl)piperazin-1-yl)pyrimidin-4-yl)urea], the IC50 was less than 1000 nM.

For the molecule `CCN(C)c1cccc(NC(=O)c2cc(OCCN3CCOCC3)nc(N3CCOCC3)n2)c1` [Compound 312, 2-Morpholin-4-yl-6-(2-morpholin-4-yl-ethoxy)-pyrimidine-4-carboxylic acid [3-(ethyl-methyl-amino)-phenyl]-amide], the half-inhibitory concentration (IC50) is less than 1000 nM.

For the molecule `NC(=O)c1cccc(NC(=O)c2cc(N3CCOCC3)nc(N3CCOCC3)n2)c1` [Compound 52, 2,6-Di-morpholin-4-yl-pyrimidine-4-carboxylic acid (3-carbamoyl-phenyl)-amide], the IC50 was not below 1000 nM.

Take `COCCN(C)c1cc(C(=O)Nc2cc(N(C)C)ccc2F)nc(N2CCOCC2)n1` [Compound 212, N-(5-(dimethylamino)-2-fluorophenyl)-6-((2-methoxyethyl)(methyl)amino)-2-morpholinopyrimidine-4-carboxamide]: the IC50 is not below 1000 nM.

Consider `Cc1[nH]c2ccc(NC(=O)c3cc(NCC(=O)N4CCOCC4)nc(N4CCOCC4)n3)cc2c1C` [Compound 89, 2-Morpholin-4-yl-6-(2-morpholin-4-yl-2-oxo-ethylamino)-pyrimidine-4-carboxylic acid (2,3-dimethyl-1H-indol-5-yl)-amide], for which the IC50 is less than 1000 nM.

For `O=C(Nc1cccc(N2CCCC2)c1)c1cc(OCCN2CCOCC2)nc(N2CCOCC2)n1` [Compound 278, 2-Morpholin-4-yl-6-(2-morpholin-4-yl-ethoxy)-pyrimidine-4-carboxylic acid (3-pyrrolidin-1-yl-phenyl)-amide], the IC50 is less than 1000 nM.

For the molecule `Cc1[nH]c2ccc(NC(=O)c3cc(OCCc4ccccn4)nc(N4CCOCC4)n3)cc2c1C` [Compound 2, 2-Morpholin-4-yl-6-(2-pyridin-2-yl-ethoxy)-pyrimidine-4-carboxylic acid (2,3-dimethyl-1H-indol-5-yl)-amide], the IC50 is less than 1000 nM.

`Cc1[nH]c2ccc(NC(=O)c3cc(N4CCC5(CC4)OCCO5)nc(N4CCOCC4)n3)cc2c1C` [Compound 172, 6-(1,4-Dioxa-8-aza-spiro[4.5]dec-8-yl)-2-morpholin-4-yl-pyrimidine-4-carboxylic acid (2,3-dimethyl-1H-indol-5-yl)-amide]: the half-maximal inhibitory concentration (IC50) was less than 1000 nM.

For `Cc1[nH]c2ccc(NC(=O)c3cc(N(C)CCO)nc(N4CCOCC4)n3)cc2c1C` [Compound 189, N-(2,3-dimethyl-1H-indol-5-yl)-6-((2-hydroxyethyl)(methyl)amino)-2-morpholinopyrimidine-4-carboxamide], the IC50 was less than 1000 nM.

As to `Cc1cccc(NNC(=O)c2cc(N3CCOCC3)nc(OCCN3CCOCC3)n2)c1` [Compound 80, 6-Morpholin-4-yl-2-(2-morpholin-4-yl-ethoxy)-pyrimidine-4-carboxylic acid N′-m-tolyl-hydrazide], the IC50 is less than 1000 nM.

As to `Cc1c(C)n(C)c2ccc(NC(=O)c3cc(N4CCOCC4)nc(N4CCOCC4)n3)cc12` [Compound 283, 2,6-Di-morpholin-4-yl-pyrimidine-4-carboxylic acid (1,2,3-trimethyl-1H-indol-5-yl)-amide], the IC50 is less than 1000 nM.

Turning to `O=C(Nc1cc(OCCN2CCOCC2)nc(N2CCOCC2)n1)Nc1nc2ccc(Cl)cc2o1` [Compound 135, 1-(6-Chloro-benzooxazol-2-yl)-3-[2-morpholin-4-yl-6-(2-morpholin-4-yl-ethoxy)-pyrimidin-4-yl]-urea], the half-maximal inhibitory concentration (IC50) was less than 1000 nM.

As for `Cc1ccc(N)c(NC(=O)c2cc(OCCN3CCOCC3)nc(N3CCOCC3)n2)c1` [Compound 272, 2-Morpholin-4-yl-6-(2-morpholin-4-yl-ethoxy)-pyrimidine-4-carboxylic acid (2-amino-5-methyl-phenyl)-amide], the IC50 is not below 1000 nM.

Regarding `Cc1c[nH]c2ccc(NC(=O)c3cc(N4CCC(O)CC4)nc(N4CCOCC4)n3)cc12` [Compound 187, 6-(4-Hydroxy-piperidin-1-yl)-2-morpholin-4-yl-pyrimidine-4-carboxylic acid (3-methyl-1H-indol-5-yl)-amide], the 50% inhibitory concentration (IC50) was less than 1000 nM.

As for `Cc1[nH]c2ccc(NC(=O)c3cc(NCCO)nc(N4CCOCC4)n3)cc2c1C` [Compound 194, N-(2,3-dimethyl-1H-indol-5-yl)-6-(2-hydroxyethylamino)-2-morpholinopyrimidine-4-carboxamide], the IC50 is less than 1000 nM.

As to `COCCN(C)c1cc(NC(=O)Nc2ccc3[nH]c(C)c(C)c3c2)nc(N2CCOCC2)n1` [Compound 265, 1-(2,3-dimethyl-1H-indol-5-yl)-3-(6-((2-methoxyethyl)(methyl)amino)-2-morpholinopyrimidin-4-yl)urea], the IC50 is less than 1000 nM.

On to `Cc1ccc(NC(=O)Nc2cc(N3CCOCC3)nc(OCCN3CCOCC3)n2)cc1C` [Compound 122, 1-(3,4-Dimethyl-phenyl)-3-[6-morpholin-4-yl-2-(2-morpholin-4-yl-ethoxy)-pyrimidin-4-yl]-urea], for which the IC50 is not below 1000 nM.
